The values below come from patent publication US10507248B2, “Hydrophobic core carrier compositions for delivery of therapeutic agents, methods of making and using the same” (PharmaIn Corporation, priority 2005, dated 2019).

Where only a bound is given, the exact number is not on record here.

The test system of series [1] is streptozotocin diabetic rats. The series is described as follows: Treatment of streptozotocin diabetic rats for 4 weeks. It counts as in vivo, Sprague-Dawley rats. As for the experimental part: FIG. 45. […] Prior to treatment the blood glucose levels taken every 2 days for 6 days prior to treatment are between 300-600 mg/dl. After randomization the average blood sugar level of each group are between 421 and 433 mg/dl. Rats were treated every 2 days subcutaneously. […] Non-fasting sugar levels taken every 2 days were added together to obtain area under the curve (AUC) for each animal to average out cyclical variability in each animal.
FIG. 46. This is a graph showing the average body weight of streptozotocin diabetic rats at the end of the 4 week treatment period (+/−standard deviation; n=4) that started at 13th day after diabetes induction with 60 mg/kg streptozotocin. The starting weights of all animals prior to streptozotocin treatment are within 240 to 260 grams.
FIG. 47. […] The islets were located and the number of BrDU positive nuclei in each islet was counted.
Briefly for this in vivo protocol, 12-week old male Sprague-Dawley (HSD) rats (Harlan, Indianapolis, Ind.) were housed at 23±1° C. in a 12:12-h light:dark cycle, and were given access to food and water ad libitium (diet LM-485, Teklad, Madison, Wis.). […] Non-fasting blood sugar levels were monitored daily from day 2 by tail-tip snip blood collection (5 ul) and blood sugar levels were measured using Glucometer (Ascensia Elite, Bayer Co. Mishawaka, Ind.) and test strips (Bayer Co. Mishawaka, Ind.). […]

Another series has as its target DPP-9 (Homo sapiens, UniProt Q86TI2). Particulars: concentrations approximating those from therapeutic doses; cited from earlier work.
For another series, the target named is DPP-8 (Homo sapiens, UniProt Q6V1X1). Particulars: concentrations approximating those from therapeutic doses; cited from earlier work.
DPP-8, sequence (Q6V1X1 whole entry): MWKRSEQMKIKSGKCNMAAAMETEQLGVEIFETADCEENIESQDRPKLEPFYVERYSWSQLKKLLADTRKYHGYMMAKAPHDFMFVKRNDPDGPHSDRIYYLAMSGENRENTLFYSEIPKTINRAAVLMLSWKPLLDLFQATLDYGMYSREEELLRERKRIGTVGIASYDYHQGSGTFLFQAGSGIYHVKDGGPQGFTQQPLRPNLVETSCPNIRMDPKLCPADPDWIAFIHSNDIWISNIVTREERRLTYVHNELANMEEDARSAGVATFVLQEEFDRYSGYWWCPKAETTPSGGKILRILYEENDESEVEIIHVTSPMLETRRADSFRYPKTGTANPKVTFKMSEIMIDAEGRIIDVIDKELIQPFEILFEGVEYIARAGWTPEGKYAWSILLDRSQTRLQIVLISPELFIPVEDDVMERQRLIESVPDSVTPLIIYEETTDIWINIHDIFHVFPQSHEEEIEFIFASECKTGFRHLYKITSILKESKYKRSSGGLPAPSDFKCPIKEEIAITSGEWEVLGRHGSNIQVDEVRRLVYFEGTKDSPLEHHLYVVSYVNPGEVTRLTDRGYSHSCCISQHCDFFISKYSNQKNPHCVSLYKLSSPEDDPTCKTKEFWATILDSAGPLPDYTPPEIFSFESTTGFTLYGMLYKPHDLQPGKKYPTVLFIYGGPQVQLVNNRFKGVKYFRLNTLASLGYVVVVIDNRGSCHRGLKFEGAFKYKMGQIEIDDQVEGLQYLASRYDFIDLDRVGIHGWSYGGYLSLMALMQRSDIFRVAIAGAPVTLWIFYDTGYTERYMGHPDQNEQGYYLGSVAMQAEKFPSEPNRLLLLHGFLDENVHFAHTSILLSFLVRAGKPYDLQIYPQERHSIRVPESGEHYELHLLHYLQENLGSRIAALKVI
The conditions of series [2]: native peptides; cited from earlier work.
For series [3] the following is noted: in vivo; cited from earlier work.

DPP-9, sequence (Q86TI2 whole entry): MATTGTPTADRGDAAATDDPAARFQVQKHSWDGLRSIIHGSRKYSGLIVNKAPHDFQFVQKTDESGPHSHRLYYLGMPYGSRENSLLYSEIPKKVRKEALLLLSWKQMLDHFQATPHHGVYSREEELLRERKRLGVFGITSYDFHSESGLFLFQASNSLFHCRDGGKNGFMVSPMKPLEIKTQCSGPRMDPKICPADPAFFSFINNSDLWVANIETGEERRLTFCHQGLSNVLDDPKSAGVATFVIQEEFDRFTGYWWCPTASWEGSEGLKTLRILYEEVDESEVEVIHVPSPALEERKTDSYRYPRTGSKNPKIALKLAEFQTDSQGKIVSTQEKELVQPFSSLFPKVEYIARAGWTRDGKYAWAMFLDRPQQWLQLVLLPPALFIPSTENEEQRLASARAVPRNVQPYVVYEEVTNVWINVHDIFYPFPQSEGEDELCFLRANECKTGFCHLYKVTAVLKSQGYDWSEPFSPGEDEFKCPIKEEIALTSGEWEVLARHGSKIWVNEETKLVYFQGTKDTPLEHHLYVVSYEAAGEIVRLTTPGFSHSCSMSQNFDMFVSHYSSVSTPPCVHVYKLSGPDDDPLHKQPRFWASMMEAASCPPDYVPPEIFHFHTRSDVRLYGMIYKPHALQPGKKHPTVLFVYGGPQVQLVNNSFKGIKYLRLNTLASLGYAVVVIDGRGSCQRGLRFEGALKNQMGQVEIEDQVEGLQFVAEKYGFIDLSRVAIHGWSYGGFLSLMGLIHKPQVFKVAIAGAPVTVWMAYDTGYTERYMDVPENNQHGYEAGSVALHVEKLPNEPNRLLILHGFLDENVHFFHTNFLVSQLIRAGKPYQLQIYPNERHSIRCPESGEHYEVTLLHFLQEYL

Take `CC[C@H](C)[C@H](NC(=O)[C@H](Cc1ccccc1)NC(=O)[C@H](CCC(=O)O)NC(=O)[C@H](CCCCN)NC(=O)[C@H](C)NC(=O)[C@H](C)NC(=O)[C@H](CCC(N)=O)NC(=O)CNC(=O)[C@H](CCC(=O)O)NC(=O)[C@H](CC(C)C)NC(=O)[C@H](Cc1ccc(O)cc1)NC(=O)[C@H](CO)NC(=O)[C@H](CO)NC(=O)[C@@H](NC(=O)[C@H](CC(=O)O)NC(=O)[C@H](CO)NC(=O)[C@@H](NC(=O)[C@H](Cc1ccccc1)NC(=O)[C@@H](NC(=O)CNC(=O)[C@H](CCC(=O)O)NC(=O)[C@H](C)NC(=O)[C@@H](N)Cc1c[nH]cn1)[C@@H](C)O)[C@@H](C)O)C(C)C)C(=O)N[C@@H](C)C(=O)N[C@@H](Cc1c[nH]c2ccccc12)C(=O)N[C@@H](CC(C)C)C(=O)N[C@H](C(=O)N[C@@H](CCCCN)C(=O)NCC(=O)N[C@@H](CCCNC(=N)N)C(N)=O)C(C)C` [GLP-1, GLP-1 (7-36 amide)]: the “BrdU positive nuclei (cell divisions) in the islets” value in series [1] (pancreas histology after 4 weeks, versus PBS or empty carrier) is given as “significantly more cell divisions”. Also, the “body weight at the end of the 4 week treatment” value in series [1] (s.c. every 2 days for 4 weeks, 20 ug GLP-1) is recorded as “greater variability in response”.

On to `N[C@@H](CC(=O)N1CCn2c(nnc2C(F)(F)F)C1)Cc1cc(F)c(F)cc1F` [Sitagliptin, 7-[(3R)-3-amino-1-oxo-4-(2,4,5-trifluorophenyl)butyl]-5,6,7,8-tetrahydro-3-(trifluoromethyl)-1,2,4-triazolo[4,3-a]pyrazine phosphate (1:1) monohydrate], for which the “inhibition of DPP-9 activity in vitro” value at DPP-9 is on record as “does not inhibit”. Moreover, on DPP-8, the “inhibition of DPP-8 activity in vitro” value is given as “does not inhibit”.

“native gastrin: native peptide hormone with short biological half-life”: the biological half-life result in series [2] is reported as “few minutes”.

By LD50 is commonly meant the dose expected to kill half of the subjects tested. Regarding `COc1ccc2[nH]c([S+]([O-])Cc3ncc(C)c(OC)c3C)nc2c1` (stereo not drawn) [Omeprazole], in series [3], the LD50 is above 4000 mg/kg.
